Data from patent US10207988B2, “Methods and compositions for treatment of cancer and autoimmune disease” (THE JACKSON LABORATORY, priority 2011, dated 2019).

What was measured:
[1] = test system: cells isolated from the spleens of wild type or AID knockout (−/−) mice; experiment: splenocyte viability, Guava EasyCyte Flow Cytometer Assay; assay type: cell-based, mouse; conditions: 150 μM DIDS, stimulated with anti-CD40 antibodies and IL-4
Procedure: Cells isolated from the spleens of wild-type (WT) or AICDA knock-out (−/−) mice were stimulated with anti-CD40 antibodies and IL-4 on day 0 and day 2. DIDS was added on day 0 and day 2 at concentrations of 0 or 150 μM. WT cells stimulated with anti-CD40 antibodies plus IL-4 and treated with DIDS are shown as filled boxes, AICDA−/− cells stimulated with anti-CD40 antibodies plus IL-4 and treated with DIDS as circle; WT cells stimulated with anti-CD40 antibodies plus IL-4 are shown as open diamonds; and AICDA−/− cells stimulated with anti-CD40 plus IL-4 antibodies as open triangles. The total number of viable cells was determined every other day. Days are shown on the x-axis and the fraction of viable cells is shown on the y-axis.
Cells were isolated from the spleens of wild type or AID knockout (−/−) mice, cultured and stimulated with anti-CD40 antibodies and IL-4 on day 0 and day 2. DIDS was added on day 0 and day 2 at concentrations of 0 or 150 μM. The total number of viable cells was determined every other day using Guava EasyCyte Flow Cytometer Assay.

Rad51 = molecular target: T1, Rad51 (Homo sapiens, UniProt Q06609); conditions: cited from earlier work
T1 sequence (Q06609 1-339): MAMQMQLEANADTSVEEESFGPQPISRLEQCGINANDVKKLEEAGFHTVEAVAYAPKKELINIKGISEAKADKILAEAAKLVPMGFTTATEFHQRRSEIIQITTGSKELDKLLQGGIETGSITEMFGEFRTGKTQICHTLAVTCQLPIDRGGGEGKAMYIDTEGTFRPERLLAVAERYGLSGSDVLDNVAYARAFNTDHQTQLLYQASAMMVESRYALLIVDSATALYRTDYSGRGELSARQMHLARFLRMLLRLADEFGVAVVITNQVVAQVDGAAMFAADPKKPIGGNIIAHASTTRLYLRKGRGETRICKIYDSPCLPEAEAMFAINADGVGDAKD

[2] = test system: primary chronic lymphocytic leukemia (CLL) cells; experiment: viable cell counts of primary human CLL cells treated with DIDS; assay type: cell-based; conditions: 150 μM or 600 μM DIDS, days 2, 4, 6, 8, relative to untreated control
Procedure: Blood samples (8-16 mL) from patients were collected via peripheral bleed into BD Vacutainer CPT tubes (BD, Franklin Lakes, N.J.), centrifuged to sequester red blood cells below the separation gel according to manufacturer instructions, and transported within 24 hours to the Jackson Laboratory. Upon receipt, peripheral blood mononuclear cells (PBMC) were isolated from samples according to manufacturer specifications. White blood cell (WBC) counts from 14 primary chronic lymphocytic leukemia (CLL) samples from human patients were calculated from complete blood count (CBC) with differentials. Calculated values were compared with empirical cell counts following cell separation and overnight shipping. […] The primary CLL samples (WBC) were diluted to standard concentration and 3.0×10^6 cells were seeded in cultures. Replicate cultures were supplemented with 0 μM (n=5), 150 μM DIDS (n=4), or 600 μM DIDS (n=2). Viable cell counts were determined by manual counting using a hemacytometer on days 2, 4, 6, and 8 of culture.

[3] = test system: primary mouse B-cells from C57BL/6J mice (AID+/+); experiment: viable cell counts (Trypan blue) of primary B-cells cultured with DIDS; assay type: cell-based
Procedure: (§1) Primary mouse B-cells were isolated from spleens of adult C57BL/6J mice (AID+/+) and from AID knockout mice (AID−/−) (see Example 1 and 2). 1×10^^6 primary B-cells were seeded into tissue culture plates, stimulated with 1 μg/ml anti-CD40 antibodies (anti-CD40; BD Pharmingen; Cat. No. 553721) and 25 ng/ml IL-4 or with anti-CD40 alone on day 0 and day 2. 0, 50 μM, 100 μM or 150 μM of DIDS was added at time 0 and 2 days after culture initiation, when culture volumes were adjusted to accommodate cell growth. The cells were cultured over 6 days. The number of viable cells were counted after staining with Trypan blue using a hemacytometer on days 1, 2, 3, 4 and 6. In FIG. 7 the number of viable primary B-cells from C57BL/6J mice (AID+/+) and AID-knockout mice (AID−/−) after treatment with DIDS is shown.

[4] = test system: primary mouse B-cells from AID knockout mice (AID−/−); experiment: as above; assay type: cell-based; conditions: 0-150 μM DIDS
Procedure: as §1

[5] = test system: activated caspase 3 (AC3) in AID+ and AID− primary human CLL cells; experiment: activated caspase 3 (AC3) staining in primary human CLL cells treated with DIDS; assay type: cell-based; conditions: 30 μM DIDS, 3 days in culture
Text: Primary human CLL patient derived cells were obtained from peripheral bleeds collected at the time of routine clinical monitoring. Primary peripheral blood samples were collected via routine venipuncture into BD Vacutainer CPT Cell Separation Tubes. Samples were centrifuged to separate red blood cells (RBC) and then inverted to resuspend the mononuclear cells in their own plasma. Samples were stored overnight at the site of collection at room temperature then shipped via courier to the site of analysis. Each sample was tested for AID expression status by reverse transcription PCR (RT-PCR) to detect presence of the human AID mRNA (see Example 11). Samples were then divided into AID+ (those showing detectable levels of AID mRNA) and AID− (those showing no detectable AID mRNA above background) groups. Multiple independent cultures from different AID+ and AID− samples were initiated in standard RPMI-1640 medium containing 10% FBS plus either 0 or 30 μM DIDS. After 3 days in culture, cells from were fixed with paraformaldehyde, mounted on microscope coverslips, permeabilized by washing with weak detergent, and processed for immunofluorescent detection of the apoptosis marker activated caspase 3 (AC3) (primary antibody: cat. No. ab13847, Abcam; 1:100 dilution). Nuclear DNA was counterstained with 4′,6-diamidino-2-phenylindole (DAPI). […]

O=S(=O)([O-])c1cc(N=C=S)ccc1/C=C/c1ccc(N=C=S)cc1S(=O)(=O)[O-].[Na+].[Na+] [DIDS, 4,4′diisothiocyanostilbene-2,2′-disulfonic acid]
total number of viable cells [1]: lower viability
effect on Rad51 complexes and heteroduplex formation (Rad51): disrupts Rad51 complexes and inhibits heteroduplex formation
viable cell counts [2]: significant decline in viable cell counts
number of viable cells ([3]; 100 μM DIDS, stimulated with anti-CD40 + IL-4): decrease of B-cell viability
number of viable cells ([3]; 150 μM DIDS, stimulated with anti-CD40 + IL-4, days 1-6): greatly reduces the cell viability from day 3 on
number of viable cells ([3]; not stimulated with anti-CD40+IL-4): does not influence the cell viability
number of viable cells [4]: no significant change in cell viability
fraction of cells showing positive staining for AC3 [5]: higher fraction of AC3-positive cells
